Holding throughout (type): cell-based
Test [1] has as its system LNCaP cells. Kind of test: Antiproliferative activity on LNCaP in medium without steroids (WST-1). The note with it: 144 h, 1 nM to 100 μM. How it is done:
The anti-proliferative activity of the compounds of the present invention is determined on LNCaP in medium without steroids.
The maintenance of the LNCaP line is carried out under the usual conditions in RPMI, 10% of foetal calf serum, 2 mM of glutamine, 100 U/ml of penicillin, 0.1 mg/ml of streptomycin and 0.01M HEPES, 1 mM sodium pyruvate, 40% of D-glucose.
For the study under conditions without steroids, 24 hours before the seeding the culture medium of the cells is eliminated. The cells are washed with PBS, then incubated in the presence of RPMI medium without phenol red, 10% of foetal calf serum without steroids (treatment with carbon), 2 mM of glutamine, 100 U/ml of penicillin, 0.1 mg/ml of streptomycin and 0.01M HEPES, 1 mM of sodium pyruvate, 40% of D-glucose. • Seeding the plates:
The LNCaP line is seeded at 20,000 cells/well in 90 μl of RPMI medium with 10% foetal calf serum without steroids in 96-well plates coated with poly-D-lysine (Biocoat, Costar). • Treatment of the cells: 24 h after seeding, the cells are treated with 10 μl/well of compound diluted in the culture medium. Experiments showing the dose-effect of the compound are carried out on a scale of 1 nM to 100 μM. The concentrations used are the following: 1 nM/10/30/100/300/1000/3000/10,000/100,000 nM. Testosterone (SIGMA T1500) is used as a reference and tested at the same concentrations. The cells are incubated for 144 h at 37° C., 5% CO2. • Reading: On D6, 10 μL of cell proliferation reagent WST-1 (Roche ref 1644807) is added to each well. After incubation for 2 to 4 hours at 37° C., 5% CO2, the absorbance at 450 nm is measured by spectrophotometry (Envision, Perkin Elmer). • Results: The experiments are carried out in duplicate and the best compounds are tested twice. […] 3. Antiproliferative Activity on DU-145 in Complete Medium: […]
A general note: Tetrazolium dyes change colour on reduction, which living cells bring about.

The subject of a further test is DU145 cells. Kind of test: Antiproliferative activity on DU-145 in complete medium (WST-1). The note with it: Homo sapiens, 144 h incubation, read-out: IC50 on the DU145 cells in culture (concentration inhibiting cell proliferation by 50%). How it is done:
The anti-proliferative activity of the compounds of the present invention is determined on DU-145 in complete medium.
Maintenance of the DU-145 line is carried out in DMEM, 10% of foetal calf serum, 2 mM of glutamine, 100 U/ml of penicillin, 0.1 mg/ml of streptomycin. • Seeding the plates: • The DU145 line is seeded at 400 or 800 cells/well in 90 μl of DMEM complete medium in 96-well plates (TPP). • Treatment of the cells: 24 h after the seeding, the cells are treated with 10 μl/well of compound diluted in the culture medium. Experiments showing the dose-effect of the compound are carried out on a scale of 1 nM to 100 μM. The concentrations used are the following: 1 nM/10/30/100/300/1000/3000/10,000/100,000 nM. The cells are incubated for 144 h at 37° C., 5% CO2. • Reading: On D6, 10 μL, of cell proliferation reagent WST-1 (Roche ref 1644807) is added to each well. After incubation for 2 to 4 hours at 37° C., 5% CO2, the absorbance at 450 nm is measured by spectrophotometry (Envision, Perkin Elmer). • Results: The experiments are carried out in duplicate and the best compounds are tested twice. […] 4. Measurement of the Disappearance of the Androgen Receptor

The target in the next test is T1, androgen receptor (Homo sapiens, UniProt P10275, T878A).
T1 construct: The LNCaP cell type (ATCC, 1740) originating from a prostate carcinoma expressing the androgen receptor; host or cells: LNCaP
T1 sequence (P10275 1-920 T878A): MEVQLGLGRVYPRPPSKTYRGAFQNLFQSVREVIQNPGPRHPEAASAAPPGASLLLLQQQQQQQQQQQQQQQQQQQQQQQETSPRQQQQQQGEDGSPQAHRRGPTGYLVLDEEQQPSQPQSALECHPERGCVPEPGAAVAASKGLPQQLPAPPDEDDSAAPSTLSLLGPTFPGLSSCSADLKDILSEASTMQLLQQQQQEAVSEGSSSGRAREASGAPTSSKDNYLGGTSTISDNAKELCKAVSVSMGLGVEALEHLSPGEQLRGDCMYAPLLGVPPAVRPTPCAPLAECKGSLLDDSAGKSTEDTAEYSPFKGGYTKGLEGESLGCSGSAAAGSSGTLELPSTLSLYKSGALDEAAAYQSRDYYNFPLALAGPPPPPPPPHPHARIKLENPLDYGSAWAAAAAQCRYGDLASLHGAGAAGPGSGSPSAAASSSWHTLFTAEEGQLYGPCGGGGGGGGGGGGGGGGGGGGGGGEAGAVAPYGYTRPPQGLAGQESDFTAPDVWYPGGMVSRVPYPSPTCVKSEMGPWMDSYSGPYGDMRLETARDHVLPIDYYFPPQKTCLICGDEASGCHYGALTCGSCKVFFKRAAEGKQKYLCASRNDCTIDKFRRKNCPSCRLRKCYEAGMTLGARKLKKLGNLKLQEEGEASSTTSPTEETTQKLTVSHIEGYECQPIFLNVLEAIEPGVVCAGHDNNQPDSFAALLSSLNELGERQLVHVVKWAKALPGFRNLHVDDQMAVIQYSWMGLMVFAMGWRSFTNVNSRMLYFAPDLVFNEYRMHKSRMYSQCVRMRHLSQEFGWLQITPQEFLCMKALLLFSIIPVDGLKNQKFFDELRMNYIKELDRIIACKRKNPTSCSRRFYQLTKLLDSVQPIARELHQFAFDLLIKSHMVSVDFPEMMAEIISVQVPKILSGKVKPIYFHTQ
Kind of test: Measurement of the disappearance of the androgen receptor (Western blot, LNCaP cells). The conditions noted are these: 72 hours after treatment. On the procedure:
The cells of the LNCaP line are seeded at a rate of 2.5 millions of cells per 10 cm Petri dish in RPMI, 10% of foetal calf serum, 2 mM of glutamine, 100 U/ml of penicillin, 0.1 mg/ml of streptomycin and 0.01M HEPES, 1 mM of sodium pyruvate, 40% of D-glucose. 4 days later, the cells are treated with the compound to be tested. 72 hours after the treatment the cells are lyzed in lysis buffer (50 mM Tris pH 7.4, 150 mM NaCl, 1 mM EDTA, 20 mM NaF, 100 mM Na2VO3, 0.5% of NP40, 1% of Triton X-100, 1 mM EGTA, Pefabloc, protease inhibitor cocktail 11836170001 RocheDiagnostics, Phosphatase inhibitor cocktail set II Calbiochem). The cells are then scrapped and the lysate transferred into QIAshredder tubes (cat No. 79656 Qiagen) for centrifugation at 13,000 rpm for 15 min at 4° C. The supernatant is transferred into QIAshredder tubes for a second centrifugation at 13,000 rpm for 5 min in order to completely eliminate the DNA filaments. […] The loading buffer (sample loading buffer 3×ref 7722 Cell signaling technology) with added 1% beta-mercaptoethanol and 50 mM DTT, is added to the samples which are then heated for 10 min at 90° C. The samples are deposited under a volume of 20 μl on NuPAGE 4-12% Bis-Tris gels (cat No. NP0322BOX, Invitrogen). The migration takes place in MOPS buffer (Invitrogen) and is carried out for 1 hour at 180V. […]
(In general: In western blotting, separated proteins are transferred to a membrane and probed.)

In test [2] the test system is LNCaP cells. Kind of test: Anti-proliferative activity on LNCaP in complete medium (WST-1). The note with it: Homo sapiens, 144 h, 144 h incubation, read-out: IC50 on the LNCaP cells in culture (concentration inhibiting cell proliferation by 50%). How it is done:
The anti-proliferative activity of the compounds of the present invention is determined on LNCaP in complete medium by applying the following experimental procedure:
The LNCaP cell type (ATCC, 1740) originating from a prostate carcinoma expressing the androgen receptor, this line is hormone-dependent.
Maintenance of the LNCaP line is carried out in complete culture medium: RPMI, 10% of foetal calf serum, 2 mM glutamine, 100 U/ml penicillin, 0.1 mg/ml of streptomycin and 0.01M HEPES, 1 mM sodium pyruvate, 40% of D-glucose. • Seeding the plates:
The LNCaP line is seeded at 20,000 cells/well in 90 μl of complete medium in 96-well plates coated with poly-D-lysine (Biocoat, Costar). • Treatment of the cells: 24 h after the seeding, the cells are treated with 10 μl/well of compound diluted in the culture medium. Experiments of the effect of doses of the compound are carried out on a scale of 1 nM to 100 µM. The concentrations used are the following: 1 nM/10/30/100/300/1000/3000/10,000/100,000 nM. Testosterone (SIGMA T1500) is used as a reference and tested at the same concentrations. The cells are incubated for 144 h at 37° C., 5% CO2. • Reading: On D6, 10 μL of the “WST-1 cell proliferation” reagent (Roche ref 1644807) is added to each well. After incubation for 2 hours at 37° C., 5% CO2, the absorbance at 450 nm is measured by spectrophotometry (Envision, Perkin Elmer). • Results: The experiments are carried out in duplicate and the best compounds are tested twice. […] 2. Antiproliferative Activity on LNCaP in Medium without Steroids: […]

On to `CC(=O)Nc1ccc(N2C(=O)N(CCCCCCCCC[S+]([O-])CCCC(F)(F)C(F)(F)F)C(C)(C)C2=O)cc1C(F)(F)F` (centres unmarked) [Example 18, N-[4-(4,4-dimethyl-2,5-dioxo-3-{9-[(4,4,5,5,5-pentafluoropentyl)sulphinyl]-nonyl}imidazolidin-1-yl)-2-(trifluoromethyl)phenyl]acetamide], for which, in the test on LNCaP cells [1], the “effect on the cell proliferation of LNCaP cultured in medium without steroids (FIG. 1)” value (from here on “effect … in medium without steroids (FIG. 1)”) is given as “anti-proliferative activity on the LNCaP cells without an agonist effect”. Further, the IC50 in the test on DU145 cells was more than 10 µM. Further, the “effect on the protein expression of the androgen receptor (FIGS. 2-4)” value at androgen receptor is given as “reduction in the protein expression of the androgen receptor”.

For `CN(C)CC(=O)Nc1ccc(N2C(=O)N(CCCCCCCCC[S+]([O-])CCCC(F)(F)C(F)(F)F)C(C)(C)C2=O)cc1C(F)(F)F` (centres unmarked) [Example 43a, N-[4-(4,4-dimethyl-2,5-dioxo-3-{9-[(4,4,5,5,5-pentafluoropentyl)sulphinyl]nonyl}imidazolidin-1-yl)-2-(trifluoromethyl)phenyl]-N^2,N^2-dimethylglycinamide], in the test with LNCaP cells [1], the “effect … in medium without steroids (FIG. 1)” value is on record as “anti-proliferative activity on the LNCaP cells without an agonist effect”. On androgen receptor, the “effect on the protein expression of the androgen receptor (FIGS. 2-4)” value is given as “reduction in the protein expression of the androgen receptor”.

As for `CC1(C)NC(=O)N(c2ccc([N+](=O)[O-])c(C(F)(F)F)c2)C1=O` [nilutamide, reference compound], the “effect … in medium without steroids (FIG. 1)” value in the test with LNCaP cells [1] is “biphasic profile with an agonist activity at low concentration followed by an inhibitory activity at high concentration”.

For the compound `CC1(C)C(=O)N(c2ccc([N+](=O)[O-])c(C(F)(F)F)c2)C(=O)N1CCCCC[S+]([O-])CCCC(F)(F)C(F)(F)F` (centres unmarked) [Example 5, 5,5-dimethyl-3-[4-nitro-3-(trifluoromethyl)phenyl]-1-{5-[(4,4,5,5,5-pentafluoropentyl)sulphinyl]pentyl}imidazolidine-2,4-dione], the figures for the IC50 with LNCaP cells [2] and in the test on DU145 cells were less than 2 µM and more than 10 µM, respectively.

The values above are taken from patent US8710091B2, “Imidazolidine-2,4-dione derivatives, and use thereof as a cancer drug” (Ipsen Pharma S.A.S., priority 2009, dated 2014).
